Measurements reported in patent US6713268B2, “Methods of identifying ocular hypotensive compounds having reduced hyperpigmentation” (Allergan, Inc., priority 2001, dated 2004).
“Also recorded” adds a separate entry of the source. Read-outs that look alike come from different tables or passages of the source. Each block holds one compound with its values, some of them ahead of it.

Columns and labels:
[1] = test system: S91 melanoma cells co-cultured with human dermal fibroblasts; assay: DOPA oxidase (tyrosinase) activity in S91 melanoma cells in transwell co-culture with human dermal fibroblasts; assay type: cell-based; details: increasing concentrations 10^−9 to 10^−5 M, 4 days
Method: (§1) Human dermal fibroblasts and S91 melanoma cells are cultured in low-glucose Dulbecco's Modified Eagle Medium (DMEM) containing 10% fetal calf serum (FCS) supplemented with 2 mM L-glutamine, 100 mg/l sodium pyruvate, 100 U/ml penicillin G, 100 […] and 250 ng/ml amphotericin B at 37° C. with 5% CO2. For tyrosinase and melanogenesis assays, the FCS concentration is reduced to 1% during the incubation period.
(§2) S91 cells are plated at 10^5 cells/well in 6-well plates and allowed to attach overnight. For transwell studies, cells from a human dermal fibroblast cell line are plated on the transwell insert at 10^3 cells/well and allowed to attach overnight. Melanoma cells are plated in an initial excess over fibroblasts; preferably at a ratio between about 1:30 and about 1:1000, more preferably at a ratio between about 1:50 and about 1:300; most preferably at a ratio of about 1:100. For primary cells, cells are cultured at a ratio of fibroblasts to melanocytes of about 1:2 to about 1:50; preferably about 1:5 to about 1:20, even more preferably about 1:10. The added test agents generally stimulate fibroblast proliferation; thus the use of the transwell permits separate enumeration of the melanocytes.
(§3) Test agents are added every other day of the assay period, with no exchange of medium.
(§4) For DOPA oxidase (tyrosinase) activity, the cells were incubated for four days in this case and the S91 cells were collected in a lysis buffer. The cell suspension was subjected to one freeze/thaw cycle (−80° C.) and vortexed to extract the cytosolic cell contents. After centrifugation for 30 minutes at 16,000×g at 4° C., aliquots of the supernatant were used in a Bradford assay to determine protein concentration or incubated with d-DOPA or l-DOPA as substrates. The optical density was measured for up to 6 hours at 490 nm.
Cloudman S91 melanoma cells (ATCC CCL-53.1) were cultured either in the presence or absence of human dermal fibroblast cells (ATCC CRL-2097) as described above. The added drugs were: arachidonic acid, anandamide, Compound C, Compound A, Compound D, Compound […], and Compound E.

iris [2] = details: monkey, in vivo
Method: (§5) The other eye is left untreated. A total of 8 animals is treated within each treatment group. At the end of the one year study period darkening of the treated eye is compared to a photograph of the same eye prior to treatment, and scored using the following scale:

S91 melanoma cells [3] = assay: DOPA oxidase (tyrosinase) activity in S91 melanoma cells cultured alone; assay type: cell-based
Method: as §1, §2, §3, §4
Cloudman S91 melanoma cells (ATCC CCL-53.1) were cultured either in the presence or absence of human dermal fibroblast cells (ATCC CRL-2097) as described above. […]

S91 melanoma cells [4] = assay: Cell proliferation assay of S91 melanoma cells; assay type: cell-based
Method: as §1, §2, §3
For the cell proliferation assay, melanoma cells were washed with Hanks BSS, trypsinized and counted with a hemacytometer.

S91 melanoma cells [5] = assay: Melanin assay in S91 cells; assay type: cell-based; details: S91 cells not in transwell cultures
Method: as §1
as §2, with “The added test agents generally stimulate fibroblast proliferation; thus the use of the transwell permits separate enumeration of the melanocytes.” left out
For the melanin assay, cells were incubated for 5 days. […] After centrifugation for 30 min at 16,000×g at room temperature, the optical density of the supernatant was measured at 475 nm and compared to a standard curve obtained with synthetic melanin.

iris [6] = details: patients; cited from earlier work
iris [7] = assay: One year topical monkey study, darkening of the iris; details: once daily 35 microliter drop in one eye for one year; scale 0-3; untreated eyes baseline 1
Method: as §5

FP receptor [8] = molecular target: T1, FP receptor (Homo sapiens, UniProt P43088); assay: FLIPR calcium signaling in HEK-293 cells stably transfected with the human FP receptor; assay type: cell-based; set-up: expressed in transfected cells; host or cells: HEK-293; details: HEK-293 human FP; for concentration at which FP receptor stimulation plateaus / concentration at which the FP receptor is stimulated (calcium signal): FLIPR, Fluo-4; for concentration at which the FP receptor is stimulated (calcium signal): onset of effect; for stimulation of the human FP receptor: calcium signal, about 10^−11 to 10^−8 M
T1 sequence (P43088 whole entry): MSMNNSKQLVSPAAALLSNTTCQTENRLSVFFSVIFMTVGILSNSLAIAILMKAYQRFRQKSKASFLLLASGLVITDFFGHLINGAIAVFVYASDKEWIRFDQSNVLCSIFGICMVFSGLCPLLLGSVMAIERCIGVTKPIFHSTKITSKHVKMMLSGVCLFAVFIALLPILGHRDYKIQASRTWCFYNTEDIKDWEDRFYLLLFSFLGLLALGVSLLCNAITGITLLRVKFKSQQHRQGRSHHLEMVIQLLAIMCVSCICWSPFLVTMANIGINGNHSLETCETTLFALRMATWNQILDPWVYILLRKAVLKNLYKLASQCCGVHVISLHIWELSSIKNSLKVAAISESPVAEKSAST
Method: Human embryonic kidney cells of line HEK-293 are stably transfected with an expression vector encoding the human FP receptor. Cells were cultured in low Glucose Dulbecco's Modified Eagles Medium containing 10% fetal calf serum, 2 mM L-glutamine, 100 mg/l sodium pyruvate, 100 U/ml penicillin G, […] streptomycin, 250 μg/ml G418 200 μg/ml hygromycin and 250 ng/ml amphotericin B at 37° C. with 5% CO2. Cells were seeded on poly-D-lysine-coated 96-well plates at 5000/well, and cultured overnight before the experiment. The cells are cultured in the presence, respectively, of: latanoprost-free acid, fluprostenol, Compound A, Compound B, and assayed using a FLIPR (fluorescence imaging plate reader) using the calcium activated fluorescent dye Fluo-4 as an indicator of free intracellular calcium. As stimulation of the FP receptor is known to cause in increase in free intracellular calcium release, this experiment is designed to determine when the test compounds are capable of stimulating the human FP receptor.

[9] = test system: S91 "Cloudman" melanoma cell line; details: cited from earlier work
S91 cells = details: native S91 cells; cited from earlier work
FP receptor [10] = molecular target: T1, FP receptor; set-up: host or cells: S91 'Cloudman' melanoma cells, stably transfected; details: cited from earlier work
melanocytes = details: cited from earlier work

darkening of the treated eye (iris), score (iris [2]): about 1.1
Compound: CCNC(=O)CCC/C=C\C[C@@H]1[C@@H](/C=C/[C@@H](O)CCc2ccccc2)[C@H](O)C[C@@H]1O [Compound A]
tyrosinase (DOPA oxidase) activity [1]: no significant changes

darkening of the treated eye (iris), score (iris [7]): 2
concentration at which FP receptor stimulation plateaus (FP receptor [8]): about 10^−8 M
concentration at which the FP receptor is stimulated (calcium signal) (FP receptor [8]): about 10^−11 M
stimulation of the human FP receptor (FP receptor [8]): stimulate
Compound: CC(C)OC(=O)CCC/C=C\C[C@@H]1[C@@H](CC[C@@H](O)CCc2ccccc2)[C@H](O)C[C@@H]1O [latanoprost]
tyrosinase (DOPA oxidase) activity [1]: stimulate increased production of tyrosinase; also recorded: dose-dependent effect
tyrosinase activity (S91 melanoma cells [3]; S91 cells not in transwell cultures, 10^−5 M): enhancement
DOPA oxidase activity (S91 melanoma cells [3]; S91 cells not in transwell cultures, up to 10^−6 M): no appreciable change
S91 cell proliferation (S91 melanoma cells [4]; 10^−5 M, with or without fibroblasts): decrease
S91 cell proliferation (S91 melanoma cells [4]; 10^−9 to 10^−6 M, with or without fibroblasts): little effect
melanin formation (S91 melanoma cells [5]; 10^−5 M): enhancement
melanin formation (S91 melanoma cells [5]; up to 10^−6 M): no appreciable change
human eyes with increase in brown pigment in the iris (iris [6]): 5-15%

concentration at which FP receptor stimulation plateaus (FP receptor [8]): about 10^−8 M
concentration at which the FP receptor is stimulated (calcium signal) (FP receptor [8]): about 10^−11 M
stimulation of the human FP receptor (FP receptor [8]): stimulate
Compound: O=C(O)CCC/C=C\C[C@@H]1[C@@H](/C=C/[C@@H](O)COc2cccc(C(F)(F)F)c2)[C@H](O)C[C@@H]1O (racemic) [fluprostenol]
tyrosinase (DOPA oxidase) activity [1]: stimulate increased production of tyrosinase; also recorded: dose-dependent effect
S91 cell proliferation (S91 melanoma cells [4]; 10^−9 to 10^−5 M, with or without fibroblast co-cultures): No effect

Compound: CCCCC[C@H](O)/C=C/[C@@H]1[C@@H](C/C=C\CCCC(=O)O)[C@@H](O)C[C@H]1O [PGF2α]
melanogenesis / melanin production [9]: only at quite high concentrations
calcium signal (S91 cells): failed to stimulate a calcium signal
DOPA oxidase (tyrosinase) activity and melanin formation compared with native S91 cells (FP receptor [10]; FP receptor transfectants): indistinguishable
calcium signal (FP receptor [10]; FP receptor transfected S91 cells): did not generate a calcium signal

Compound: melanocyte-stimulating hormone [MSH]
melanogenesis / melanin production [9]: able to simulate melanogenesis
activity of tyrosinase (melanocytes): appears to stimulate
expression or activity of TRP2 and TRP1 (melanocytes): does not increase

Compound: CCCCC/C=C\C/C=C\C/C=C\C/C=C\CCCC(=O)O [arachidonic acid]
tyrosinase (DOPA oxidase) activity [1]: significant increase
tyrosinase (DOPA oxidase) activity (S91 melanoma cells [3]; S91 without fibroblasts, increasing concentrations 10^−9 to 10^−5 M, 4 days): smaller increase

Compound: CCCCC/C=C\C/C=C\C/C=C\C/C=C\CCCC(=O)NCCO [anandamide]
tyrosinase (DOPA oxidase) activity [1]: no significant increase
